# Results: PMC10100225, “In Vivo Biocatalytic Cascades Featuring an Artificial‐Enzyme‐Catalysed New‐to‐Nature Reaction” (Angewandte Chemie (International Ed. in English), 2022)
# Assays:
# Assay type in all cases: cell-based
# [1] = target: T1, 5-Hydroxymethylfurfural (HMF) oxidase (HMFO) (Methylovorus sp. MP688, UniProt E4QP00); experiment: whole-cell alcohol oxidation; conditions: O2 as oxidant; E. coli RARE cells, 5 mM, 2 h
# T1 construct: gene MPQ_0130; flavoprotein, pBAD vector, expressed in E. coli K-12 MG1655 (RARE); no mutations told
# T1 sequence (E4QP00 1-531): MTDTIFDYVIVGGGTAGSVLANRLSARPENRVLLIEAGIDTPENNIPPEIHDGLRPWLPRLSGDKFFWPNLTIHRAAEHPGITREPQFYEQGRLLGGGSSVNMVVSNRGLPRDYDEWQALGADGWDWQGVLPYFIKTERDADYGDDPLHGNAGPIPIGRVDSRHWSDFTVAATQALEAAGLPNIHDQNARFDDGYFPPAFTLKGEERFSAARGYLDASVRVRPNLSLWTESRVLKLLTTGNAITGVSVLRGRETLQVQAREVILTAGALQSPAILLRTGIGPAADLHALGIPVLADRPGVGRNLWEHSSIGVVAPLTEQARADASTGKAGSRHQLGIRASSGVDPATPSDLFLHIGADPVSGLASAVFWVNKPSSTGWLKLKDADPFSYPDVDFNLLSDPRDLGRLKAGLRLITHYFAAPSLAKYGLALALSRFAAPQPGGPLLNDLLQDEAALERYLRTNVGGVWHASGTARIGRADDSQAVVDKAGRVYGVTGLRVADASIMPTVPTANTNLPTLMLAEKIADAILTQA
# [2] = target: T2, feruloyl CoA synthase (FCS, Atfcs) (Amycolatopsis thermoflava, UniProt Z9FW54HPU9); experiment: whole-cell aldehyde formation; conditions: E. coli RARE cells co-expressing ECH hydratase/aldolase, which completes the conversion to aldehyde; MMV medium, 5 mM, 24 °C
# T2 construct: pETDuet-1, co-expressed with enoyl-CoA hydratase/aldolase Atech of the same strain in E. coli K-12 MG1655 (RARE)
# [3] = target: carboxylic acid reductase (CAR) (Nocardia iowensis, UniProt Q6RKB1); experiment: whole-cell aldehyde formation; conditions: E. coli RARE cells co-expressing SFP; MMV medium, 5 mM, 24 °C
# Chain of carboxylic acid reductase (CAR) (Q6RKB1 2-1174): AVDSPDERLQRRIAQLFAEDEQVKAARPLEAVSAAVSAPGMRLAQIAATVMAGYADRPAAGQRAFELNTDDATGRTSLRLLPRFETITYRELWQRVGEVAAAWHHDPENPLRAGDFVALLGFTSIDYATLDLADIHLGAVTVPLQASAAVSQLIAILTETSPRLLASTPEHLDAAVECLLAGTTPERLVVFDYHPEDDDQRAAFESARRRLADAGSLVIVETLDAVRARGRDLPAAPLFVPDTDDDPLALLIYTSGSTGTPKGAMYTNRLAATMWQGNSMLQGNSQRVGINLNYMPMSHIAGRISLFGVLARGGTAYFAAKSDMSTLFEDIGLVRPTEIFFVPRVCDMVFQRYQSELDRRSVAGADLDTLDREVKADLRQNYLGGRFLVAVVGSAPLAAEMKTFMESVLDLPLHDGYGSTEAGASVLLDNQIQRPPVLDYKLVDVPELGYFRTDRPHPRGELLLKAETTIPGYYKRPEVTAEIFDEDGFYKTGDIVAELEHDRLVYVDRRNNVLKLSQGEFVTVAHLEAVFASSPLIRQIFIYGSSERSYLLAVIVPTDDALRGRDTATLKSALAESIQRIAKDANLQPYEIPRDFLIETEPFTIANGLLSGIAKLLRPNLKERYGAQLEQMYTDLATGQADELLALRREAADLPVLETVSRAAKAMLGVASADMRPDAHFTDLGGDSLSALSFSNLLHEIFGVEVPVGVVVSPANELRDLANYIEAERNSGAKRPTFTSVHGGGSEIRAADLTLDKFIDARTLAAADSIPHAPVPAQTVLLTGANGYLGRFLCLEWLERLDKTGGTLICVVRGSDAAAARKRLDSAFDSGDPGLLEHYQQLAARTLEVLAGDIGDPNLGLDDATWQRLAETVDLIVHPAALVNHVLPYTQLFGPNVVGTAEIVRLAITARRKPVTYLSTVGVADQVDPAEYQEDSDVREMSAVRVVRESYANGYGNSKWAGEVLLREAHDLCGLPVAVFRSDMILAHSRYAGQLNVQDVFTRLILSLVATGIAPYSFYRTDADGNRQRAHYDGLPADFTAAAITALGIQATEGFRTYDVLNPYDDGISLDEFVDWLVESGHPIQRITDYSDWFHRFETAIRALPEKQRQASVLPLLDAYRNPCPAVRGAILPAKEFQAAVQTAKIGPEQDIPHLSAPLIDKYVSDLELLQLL
Structure (SMILES),whole-cell alcohol oxidation [1],whole-cell aldehyde formation [3],also measured
"OCc1ccc(O)cc1 [6 a, p-hydroxybenzyl alcohol]",whole cell HMFO catalysed oxidation of benzyl alcohol and p‐hydroxybenzyl alcohol,,
"OCc1ccccc1 [6 b, benzyl alcohol]",whole cell HMFO catalysed oxidation of benzyl alcohol and p‐hydroxybenzyl alcohol,,
"O=C(O)/C=C/c1ccc(O)cc1 [compound 5, p-coumaric acid]",,,"whole-cell aldehyde formation [2]: FCS‐ECH/E. coli RARE, starting from p‐coumaric acid"
"O=C(O)c1ccc(O)cc1 [4 a, p-hydroxybenzoic acid]",,"CAR‐SFP/E. coli RARE, from p‐hydroxybenzoic acid, produced a good yield of p‐hydroxybenzaldehyde",
"O=C(O)c1ccccc1 [4 b, benzoic acid]",,reduction of benzoic acid to benzaldehyde catalysed by CAR‐SFP/E. coli RARE,
